Laboratory results as given in the supplement of paper PMC10307832.

Tests used:
Experiment in all cases: relative viability (nuclei count vs DMSO), 5 days (fraction); higher = more cells survive
[1] = compound: CCN1C(=O)C2=CC(=C(N=C2N(C1=O)C3CC3)N)C(=O)N + CS(=O)(=O)CCNCc1ccc(-c2ccc3ncnc(Nc4ccc(OCc5cccc(F)c5)c(Cl)c4)c3c2)o1 [Lapatinib] (partner 2 µM)
Method in brief: (§1)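 After 5 days of treatment, lung cancer cells in 1536-well plates were fixed and stained in a single step (final 0.05% Triton X-100, 1% formaldehyde, 1 ug/ml Hoechst) and their nuclei counted on 4× images. Treatment had been applied by pin tool the day after seeding as one drug alone or as a fixed anchor-drug dose with five library-drug doses (not always all listed) in √10 steps. Relative viability is the nuclei count of treated wells divided by that of vehicle wells, and values are medians of duplicate plates.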

[2] = compound: CCN1C(=O)C2=CC(=C(N=C2N(C1=O)C3CC3)N)C(=O)N + Cc1nc(NC(=O)N2CCC[C@H]2C(N)=O)sc1-c1ccnc(C(C)(C)C(F)(F)F)c1 [Alpelisib] (partner 2 µM)
Method in brief: as §1

[3] = compound: CCN1C(=O)C2=CC(=C(N=C2N(C1=O)C3CC3)N)C(=O)N + Cc1nc(Nc2ncc(C(=O)Nc3c(C)cccc3Cl)s2)cc(N2CCN(CCO)CC2)n1 [Dasatinib] (partner 0.075 µM)
Method in brief: as §1

[4] = compound: CCN1C(=O)C2=CC(=C(N=C2N(C1=O)C3CC3)N)C(=O)N + N=C(N)NC(=N)NCCc1ccccc1 [Phenformin] (partner 250 µM)
Method in brief: as §1

[5] = compound: CCN1C(=O)C2=CC(=C(N=C2N(C1=O)C3CC3)N)C(=O)N + NC(=O)Nc1cc(-c2cccc(F)c2)sc1C(=O)N[C@H]1CCCNC1 [AZD7762] (partner 0.2 µM)
Method in brief: as §1

Cell Line	relative viability ([1]; first compound 0.253 µM)	relative viability ([1]; first compound 0.8 µM)	relative viability ([1]; first compound 2.53 µM)	relative viability ([1]; first compound 8 µM)	relative viability ([2]; first compound 0.253 µM)	relative viability ([2]; first compound 0.8 µM)	relative viability ([2]; first compound 2.53 µM)	relative viability ([2]; first compound 8 µM)	relative viability ([3]; first compound 0.253 µM)	relative viability ([3]; first compound 0.8 µM)	relative viability ([3]; first compound 2.53 µM)	relative viability ([3]; first compound 8 µM)	relative viability ([4]; first compound 0.253 µM)	relative viability ([4]; first compound 0.8 µM)	relative viability ([4]; first compound 2.53 µM)	relative viability ([4]; first compound 8 µM)	relative viability ([5]; first compound 0.253 µM)	relative viability ([5]; first compound 0.8 µM)	relative viability ([5]; first compound 2.53 µM)	relative viability ([5]; first compound 8 µM)
201T	1.03	0.949	0.967	0.98	1.04	1.02	1.04	1.04	0.559	0.518	0.574	0.496	0.478	0.474	0.442	0.47	0.609	0.677	0.64	0.615
A-427	1.06	0.963	1.05	1.01	1.02	1.04	1.04	1.09	0.729	0.825	0.744	0.779	0.376	0.307	0.376	0.343	0.73	0.791	0.731	0.789
ABC-1	1.08	1.4	0.969	1.29	1.23	0.751	1.11	0.969	0.559	0.473	0.565	0.56	0.24	0.22	0.274	0.25	0.479		1.15	0.954
BEN	0.776	0.638	0.827	0.697	1.07	1.02	0.929	1.01	0.368	0.267	0.313	0.356	0.251	0.273	0.264	0.284	0.789	0.568	0.864	0.689
CAL-12T	0.528		0.716	0.859	1.07	1.07	0.964	1.21	0.466	0.377	0.452	0.462	0.565	0.61	0.49	0.547	0.619	0.479	0.664	0.567
COR-L23	0.927	1.03	0.745	1.04	0.775	0.714	0.816	0.944	0.573	0.562	0.456	0.531	0.429	0.442	0.435	0.423				
COR-L 105	0.308	0.339	0.424	0.398	1.08	0.959	0.833	0.853	0.358	0.261	0.264	0.304	0.452	0.391	0.498	0.379				
ChaGo-K-1									0.6	0.664	0.614	0.527	0.485	0.446	0.561	0.472	0.873	0.863	0.89	0.872
EKVX	0.23	0.25	0.222	0.196	0.975	0.896	0.821	0.851	0.496	0.479	0.461	0.469	0.256	0.248	0.316	0.231	0.824	0.701	0.749	0.698
EMC-BAC-2	0.937	0.849	0.859	0.888	0.808	0.743	0.725	0.796	0.35	0.305	0.328	0.318	0.597	0.478	0.478	0.56	1.18		1.04	1.14
EPLC-272H	0.834	0.867	0.932	1.13	0.801	0.868	0.901	0.942	0.425	0.394	0.377	0.431	0.322	0.32	0.357	0.32	0.229	0.206	0.278	0.193
H3255	0.246	0.216	0.192	0.258	0.653	0.609	0.631	0.624	0.403	0.444	0.425	0.347	0.427	0.306	0.315	0.359	0.884	0.922	0.919	0.832
HARA	0.809	0.688	0.839	0.69	0.817	0.787	0.79	0.964	0.321	0.234	0.233	0.246	0.433	0.478	0.414	0.401	0.661	0.304	0.296	0.315
HCC-15	0.816	0.903	0.782	0.859	0.921	0.959	0.873	0.986	0.634	0.598	0.61	0.598	0.456	0.472	0.473	0.44	1.18	1.45	1.18	1.31
